Legend:
Type in all cases: in vivo, BALB/c mice
[1] = tested on: M109 tumor cells (lung adenocarcinoma); assay: Lung adenocarcinoma model: survival of mice injected intraperitoneally with M109 tumor cells, IL-2 in MLV; details: 5×10^5 M109 cells i.p. day 0, ADR or DOXIL 8 mg/kg i.v. day 7, MLV-IL-2 50,000 CU/mouse i.p. days 10, 13, 16
Procedure: B1. Lung Adenocarcinoma Model: IL-2 in MLV. Six groups of BALB/c mice were injected intraperitoneally with 5×10^5 M109 tumor cells (day 0). Free adriamycin or DOXIL®, respectively, were administered intravenously on day 7 at a dose of 8 mg/kg, and intraperitoneal cytokine treatment was initiated 3 days later. Liposomal IL-2 (formulation B; MLV DMPC/DMPG (9:1 mole ratio) liposomes containing IL-2) was given once daily (50,000 CU/mouse) on days 10, 13 and 16. Control groups received no treatment or received the IL-2 treatment alone.
(§1) Each group, consisting of 8-9 mice, was inspected for survival up to 100 days after tumor inoculation.

[2] = tested on: C26 colon carcinoma cells; assay: Subcutaneous colon carcinoma model (footpad), IL-2 in MLV; details: 10^5 C26 cells in footpad, 8 mg/kg free or liposomal adriamycin i.v. day 7, IL-2 i.p.
Procedure: B3. Subcutaneous colon carcinoma model: IL-2 in MLV. In this test, 7 groups of BALB/c mice were injected in the footpad with 10^5 C26 colon carcinoma cells.

M109 tumor cells = assay: Second, more extensive M109 study: free or liposomal adriamycin with free IL-2, SSL-IL-2 or MLV-IL-2; details: 5×10^5 M109 cells i.p.; ADR or DOXIL 8 mg/kg i.p. day 7; IL-2 50,000 CU/mouse i.v. days 10, 13, 16; observed up to 120 days
Procedure: In a second, more extensive study, nine groups of BALB/c mice were injected intraperitoneally with 5×10^5 M109 tumor cells. Free adriamycin or DOXIL® (8 mg/kg) were administered intraperitoneally 7 days later, followed 3 days later by intravenous cytokine treatment. The cytokine, given once daily (50,000 CU/mouse) on days 10, 13 and 16, consisted of free IL-2, IL-2 in Formulation A (Stealth® PEGylated SUV), or IL-2 in Formulation B (9:1 molar DMPC/DMPG MLV).
Each group, consisting of 8 mice, and an untreated control group of 11 mice, were inspected for survival up to 120 days after tumor inoculation.

[3] = tested on: M109 tumor cells (lung adenocarcinoma); assay: Metastatic lung adenocarcinoma model: survival of mice injected intravenously with M109 tumor cells, IL-2 in PEGylated SUV; details: 5×10^5 M109 cells i.v. day 0, ADR or DOXIL 8 mg/kg i.v. day 7, SSL-IL-2 50,000 CU/mouse i.v. days 11, 14, 17
Procedure: B2. Metastatic Lung Adenocarcinoma Model: IL-2 in MLV (Formulation B) and PEG-Derivatized SUV (SSL). In this experiment, BALB/c mice were injected intravenously with 5×10^5 M109 tumor cells (day 0). Free adriamycin or DOXIL ®, respectively, were administered intravenously on day 7 (8 mg/kg), followed […] by intravenous cytokine treatment. Liposomal IL-2 (Formulation A; PEGylated SUV containing IL-2) was given once daily (50,000 CU/mouse) on days 11, 14 and 17. Control groups received no treatment or received the IL-2 treatment alone.
as §1

## COc1cccc2c1C(=O)c1c(O)c3c(c(O)c1C2=O)C[C@@](O)(C(=O)CO)C[C@@H]3O[C@H]1C[C@H](N)[C@H](O)[C@H](C)O1 [ADR, adriamycin (doxorubicin)]
[1]; observed up to 100 days
  MEDIAN SURVIVAL: 42 days
[1]; survival up to 100 days
  NUMBER OF SURVIVING MICE/TOTAL: 0/8
[2]; day 30
  NUMBER OF TUMOR FREE MICE, DAY 30: 0/7
[2]; day 65
  NUMBER OF TUMOR FREE MICE, DAY 65: 0/7
M109 tumor cells
  MEDIAN SURVIVAL: 100 days
  NUMBER OF TUMOR FREE MICE/TOTAL: 4/8
[3]; observed up to 100 days
  MEDIAN SURVIVAL: 56 days
[3]; survival up to 100 days
  NUMBER OF SURVIVING MICE/TOTAL: 2/8

Reference: patent US6787132B1, “Combined chemo-immunotherapy with liposomal drugs and cytokines” (Yissum Research Development Company of the Hebrew …, priority 1997, dated 2004)
